Experiment [1] addresses T1, Glucagon receptor (Rattus norvegicus, UniProt P30082). Briefly: Binding affinity towards Glucagon receptor in rat liver plasma membranes by displacement of 125 I-labelled glucagon. It is filed as cell membranes.
Experiment [2] deals with T1, Glucagon receptor. Nature of the experiment: pA2 value against Glucagon Receptor. Conditions: read-out: pA2 (converted).
The target in experiment [3] is Glucagon receptor (Rattus norvegicus) (UniProt P30082). Nature of the experiment: Relative binding potency expressed as receptor binding IC50 for glucagon by receptor binding IC50 for compound.
The target is the same in experiment [4]. Briefly: Percent stimulation of cAMP production over basal. It is filed as functional. Also noted: concentration or dose not given beside the values.

We go through eight compounds from ChEMBL document CHEMBL1130110 (J Med Chem, 1997).

T1 sequence (P30082 whole entry): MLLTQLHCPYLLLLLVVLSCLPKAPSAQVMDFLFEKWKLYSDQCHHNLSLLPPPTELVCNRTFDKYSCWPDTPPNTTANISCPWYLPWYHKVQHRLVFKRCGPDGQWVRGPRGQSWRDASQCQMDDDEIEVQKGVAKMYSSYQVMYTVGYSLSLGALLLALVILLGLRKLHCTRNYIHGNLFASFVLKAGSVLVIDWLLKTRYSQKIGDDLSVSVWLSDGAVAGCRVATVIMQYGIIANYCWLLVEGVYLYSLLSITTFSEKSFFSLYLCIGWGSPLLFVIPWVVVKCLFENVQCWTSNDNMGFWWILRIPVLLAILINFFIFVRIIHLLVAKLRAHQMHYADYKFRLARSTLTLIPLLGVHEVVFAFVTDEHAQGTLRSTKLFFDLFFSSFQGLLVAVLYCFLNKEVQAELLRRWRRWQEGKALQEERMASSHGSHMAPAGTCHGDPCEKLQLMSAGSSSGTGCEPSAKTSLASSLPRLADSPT
Sequence of Glucagon receptor (Rattus norvegicus) (P30082 whole entry): as above

As to `CSCC[C@H](NC(=O)[C@H](CC(C)C)NC(=O)[C@H](Cc1c[nH]c2ccccc12)NC(=O)[C@H](CCC(N)=O)NC(=O)[C@@H](NC(=O)[C@H](Cc1ccccc1)NC(=O)[C@H](CC(=O)O)NC(=O)[C@H](CCC(N)=O)NC(=O)[C@H](C)NC(=O)[C@H](CCCNC(=N)N)NC(=O)[C@H](CCCNC(=N)N)NC(=O)[C@H](CO)NC(=O)[C@H](CC(=O)O)NC(=O)[C@H](CC(C)C)NC(=O)[C@H](Cc1ccc(O)cc1)NC(=O)[C@H](CCCCN)NC(=O)[C@H](CO)NC(=O)[C@H](Cc1ccc(O)cc1)NC(=O)[C@H](CCC(=O)O)NC(=O)[C@H](CO)NC(=O)[C@@H](NC(=O)[C@@H](NC(=O)CNC(=O)[C@H](CCC(N)=O)NC(=O)[C@@H](N)CO)[C@@H](C)O)[C@@H](C)O)C(C)C)C(=O)N[C@@H](CC(N)=O)C(=O)N[C@H](C(=O)O)[C@@H](C)O` (stereo in doubt; 13), the IC50 at Glucagon receptor [1] is 2000 nM. The Kb on Glucagon receptor [2] was 631 nM.
With `CSCC[C@H](NC(=O)[C@H](CC(C)C)NC(=O)[C@H](Cc1c[nH]c2ccccc12)NC(=O)[C@H](CCC(N)=O)NC(=O)[C@@H](NC(=O)[C@H](Cc1ccccc1)NC(=O)[C@H](CC(=O)O)NC(=O)[C@H](CCC(N)=O)NC(=O)[C@H](C)NC(=O)[C@H](CCCNC(=N)N)NC(=O)[C@H](CCCNC(=N)N)NC(=O)[C@H](CO)NC(=O)[C@H](CC(=O)O)NC(=O)[C@H](CC(C)C)NC(=O)[C@H](Cc1ccc(O)cc1)NC(=O)[C@H](CCCCN)NC(=O)[C@H](CO)NC(=O)[C@H](Cc1ccc(O)cc1)NC(=O)[C@H](CCC(=O)O)NC(=O)[C@H](CO)NC(=O)[C@@H](NC(=O)[C@@H](NC(=O)CNC(=O)[C@H](CCC(N)=O)NC(=O)[C@@H](N)CO)[C@@H](C)O)[C@@H](C)O)C(C)C)C(=O)N[C@@H](CC(N)=O)C(=O)N[C@H](C(=O)O)[C@@H](C)O` (stereo in doubt; 12), the IC50 on Glucagon receptor [1] stood at 1000 nM. Besides, at Glucagon receptor [2], the Kb is 794 nM.
At Glucagon receptor [1], H-HSQGTTSDYSKYLDSRRAQDFVQWLMNT-OH displayed an IC50 of 500 nM. The Kb at Glucagon receptor [2] is 562 nM.
`CCCC[C@H](NC(=O)[C@@H](NC(=O)CNC(=O)[C@H](CCC(N)=O)NC(=O)[C@@H](N)CO)[C@@H](C)O)C(=O)N[C@H](C(=O)N[C@@H](CO)C(=O)N[C@@H](CCC(=O)O)C(=O)N[C@@H](Cc1ccc(O)cc1)C(=O)N[C@@H](CO)C(=O)N[C@@H](CCCCN)C(=O)N[C@@H](Cc1ccc(O)cc1)C(=O)N[C@@H](CC(C)C)C(=O)N[C@@H](CC(=O)O)C(=O)N[C@@H](CO)C(=O)N[C@@H](CCCN=C(N)N)C(=O)N[C@@H](CCCN=C(N)N)C(=O)N[C@@H](C)C(=O)N[C@@H](CCC(N)=O)C(=O)N[C@@H](CC(=O)O)C(=O)N[C@@H](Cc1ccccc1)C(=O)N[C@H](C(=O)N[C@@H](CCC(N)=O)C(=O)N[C@@H](Cc1c[nH]c2ccccc12)C(=O)N[C@@H](CC(C)C)C(=O)N[C@@H](CCSC)C(=O)N[C@@H](CC(N)=O)C(=O)N[C@H](C(N)=O)[C@@H](C)O)C(C)C)[C@@H](C)O`: the IC50 on Glucagon receptor [1] is 48 nM.
Turning to `CSCC[C@@H](NC(=O)[C@@H](CC(C)C)NC(=O)[C@@H](Cc1c[nH]c2ccccc12)NC(=O)[C@@H](CCC(N)=O)NC(=O)[C@H](NC(=O)[C@@H](Cc1ccccc1)NC(=O)[C@@H](CC(=O)O)NC(=O)[C@@H](CCC(N)=O)NC(=O)[C@@H](C)NC(=O)[C@@H](CCCN=C(N)N)NC(=O)[C@@H](CCCN=C(N)N)NC(=O)[C@@H](CO)NC(=O)[C@@H](CC(=O)O)NC(=O)[C@@H](CC(C)C)NC(=O)[C@@H](Cc1ccc(O)cc1)NC(=O)[C@@H](CCCCN)NC(=O)[C@@H](CO)NC(=O)[C@@H](Cc1ccc(O)cc1)NC(=O)[C@@H](CCC(=O)O)NC(=O)[C@@H](CO)NC(=O)[C@H](NC(=O)[C@H](NC(=O)CNC(=O)[C@@H](CCC(N)=O)NC(=O)[C@H](N)CO)[C@H](C)O)[C@H](C)O)C(C)C)C(=O)N[C@H](CC(N)=O)C(=O)N[C@@H](C(=O)O)[C@H](C)O` (stereo in doubt; 13), the results for the Activity in experiment [3] and in experiment [4] were below 0.1% and 0%, respectively.
Taken in the same sequence, the figures for `CSCC[C@@H](NC(=O)[C@@H](CC(C)C)NC(=O)[C@@H](Cc1c[nH]c2ccccc12)NC(=O)[C@@H](CCC(N)=O)NC(=O)[C@H](NC(=O)[C@@H](Cc1ccccc1)NC(=O)[C@@H](CC(=O)O)NC(=O)[C@@H](CCC(N)=O)NC(=O)[C@@H](C)NC(=O)[C@@H](CCCN=C(N)N)NC(=O)[C@@H](CCCN=C(N)N)NC(=O)[C@@H](CO)NC(=O)[C@@H](CC(=O)O)NC(=O)[C@@H](CC(C)C)NC(=O)[C@@H](Cc1ccc(O)cc1)NC(=O)[C@@H](CCCCN)NC(=O)[C@@H](CO)NC(=O)[C@@H](Cc1ccc(O)cc1)NC(=O)[C@@H](CCC(=O)O)NC(=O)[C@@H](CO)NC(=O)[C@H](NC(=O)[C@H](Cc1ccccc1)NC(=O)[C@H](NC(=O)CNC(=O)[C@@H](CCC(N)=O)NC(=O)[C@H](N)CO)[C@H](C)O)[C@H](C)O)C(C)C)C(=O)N[C@H](CC(N)=O)C(=O)N[C@@H](C(N)=O)[C@H](C)O` were 1.5% and 0%.
Taken in the same sequence, the figures for `CC(C)C[C@@H](NC(=O)[C@@H](Cc1ccc(O)cc1)NC(=O)[C@@H](CCCCN)NC(=O)[C@@H](CO)NC(=O)[C@@H](Cc1ccc(O)cc1)NC(=O)[C@@H](CC(=O)O)NC(=O)[C@@H](CO)NC(=O)[C@H](NC(=O)[C@H](NC(=O)CNC(=O)[C@@H](CCC(N)=O)NC(=O)[C@@H](CO)NC(=O)[C@H](N)Cc1c[nH]cn1)[C@H](C)O)[C@H](C)O)C(=O)N[C@H](CC(=O)O)C(=O)N[C@H](CO)C(=O)N[C@H](CCCN=C(N)N)C(=O)N[C@H](CCCN=C(N)N)C(=O)N[C@H](C)C(=O)N[C@H](CCC(N)=O)C(=O)N[C@H](CC(=O)O)C(=O)N[C@H](Cc1ccccc1)C(=O)N[C@@H](C(=O)N[C@H](CCC(N)=O)C(=O)N[C@H](Cc1c[nH]c2ccccc12)C(=O)N[C@H](CC(C)C)C(=O)N[C@H](CCS)C(=O)N[C@H](CC(N)=O)C(=O)N[C@@H](C=O)[C@H](C)O)C(C)C` were 0.3% and 0%.
In the same order, the values of `CSCC[C@@H](NC(=O)[C@@H](CC(C)C)NC(=O)[C@@H](Cc1c[nH]c2ccccc12)NC(=O)[C@@H](CCC(N)=O)NC(=O)[C@H](NC(=O)[C@@H](Cc1ccccc1)NC(=O)[C@@H](CC(=O)O)NC(=O)[C@@H](CCC(N)=O)NC(=O)[C@@H](C)NC(=O)[C@@H](CCCN=C(N)N)NC(=O)[C@@H](CCCN=C(N)N)NC(=O)[C@@H](CO)NC(=O)[C@@H](CC(=O)O)NC(=O)[C@@H](CC(C)C)NC(=O)[C@@H](Cc1ccc(O)cc1)NC(=O)[C@@H](CCCCN)NC(=O)[C@@H](CO)NC(=O)[C@@H](Cc1ccc(O)cc1)NC(=O)[C@@H](CCC(=O)O)NC(=O)[C@@H](CO)NC(=O)[C@H](NC(=O)[C@H](NC(=O)CNC(=O)[C@@H](CCC(N)=O)NC(=O)[C@@H](CO)NC(=O)[C@H](N)Cc1c[nH]cn1)[C@H](C)O)[C@H](C)O)C(C)C)C(=O)N[C@H](CC(N)=O)C(=O)N[C@@H](C(N)=O)[C@H](C)O` are 1.3% and 0%.
